Assay results: patent US20240116985A1, “STAPLED PEPTIDES AND METHODS THEREOF” (priority 2020, published 2024)

What follows are compounds tested against T1, full-length beta-Catenin (Uniprot ID P35222) (Homo sapiens, UniProt P35222) (assay: Fluorescence polarization IC50 (beta-catenin / 5FAM-TCF4 10-53 competition)). Conditions: fluorescence polarization; read-out: beta-Catenin FP IC50.
T1 construct: 10 nM full-length beta-Catenin (Uniprot ID P35222)
T1 sequence (P35222 1-781): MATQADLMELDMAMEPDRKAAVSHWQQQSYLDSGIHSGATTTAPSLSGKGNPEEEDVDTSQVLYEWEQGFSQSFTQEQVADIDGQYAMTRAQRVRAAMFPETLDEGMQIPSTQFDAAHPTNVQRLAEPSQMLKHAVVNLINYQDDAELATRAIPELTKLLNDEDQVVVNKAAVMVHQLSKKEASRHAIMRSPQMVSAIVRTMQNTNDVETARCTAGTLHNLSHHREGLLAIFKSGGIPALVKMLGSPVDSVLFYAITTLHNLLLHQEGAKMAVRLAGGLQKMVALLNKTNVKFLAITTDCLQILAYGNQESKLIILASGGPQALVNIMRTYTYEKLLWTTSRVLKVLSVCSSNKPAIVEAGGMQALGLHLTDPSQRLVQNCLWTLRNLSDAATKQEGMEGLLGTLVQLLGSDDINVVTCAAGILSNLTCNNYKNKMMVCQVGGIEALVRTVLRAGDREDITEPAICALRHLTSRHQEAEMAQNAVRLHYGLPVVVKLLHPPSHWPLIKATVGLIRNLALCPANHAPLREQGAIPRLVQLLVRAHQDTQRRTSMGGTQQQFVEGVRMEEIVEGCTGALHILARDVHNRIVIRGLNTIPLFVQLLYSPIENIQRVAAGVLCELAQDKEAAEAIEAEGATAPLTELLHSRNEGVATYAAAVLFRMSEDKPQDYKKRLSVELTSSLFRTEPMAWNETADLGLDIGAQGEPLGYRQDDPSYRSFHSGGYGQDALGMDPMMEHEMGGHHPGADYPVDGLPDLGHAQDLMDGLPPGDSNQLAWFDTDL
Assay type: binding

Compound | IC50 [nM]
CC(=O)N1CCC[C@]12CC=CCCCC1(CCCC=CCCCOC(=O)N3CC[C@@](C(=O)N[C@@H](Cc4ccccc4)C(=O)N[C@@H](Cc4csc5ccccc45)C(=O)N[C@@H](CCCCNC(C)C)C(N)=O)(C3)NC(=O)[C@H](CC(C)C)NC(=O)[C@H](Cc3ccccc3)NC(=O)[C@H](C)NC(=O)[C@H](CCCCNC(C)C)NC(=O)[C@H](CCC(N)=O)NC(=O)[C@H](CC(=O)O)NC1=O)NC(=O)[C@H](CC(C)(C)C)NC(=O)[C@H](CC(N)=O)NC2=O (stereo partly drawn) [I-1645, Ac-PL3-Asn-Npg-B5-Asp-Gln-iPrLys-Ala-Phe-Leu-PyrS2-Phe-BztA-iPrLys-NH2] | 940
CC(C)C[C@H](NC(=O)[C@]12CCN(C1)C(=O)OCCCC=CCCCC1(CCCC=CCCCC(=O)N3CCC[C@@]3(C)C(=O)N[C@@H](CC(=O)O)C(=O)N1)C(=O)N[C@@H](C)C(=O)N[C@@H](CC(=O)O)C(=O)N[C@@H](CC(=O)O)C(=O)N[C@@H](C)C(=O)N[C@@H](C)C(=O)N[C@@H](Cc1ccccc1)C(=O)N2)C(=O)N[C@@H](Cc1ccsc1)C(=O)N[C@@H](Cc1csc2ccccc12)C(=O)N[C@@H](CCC(N)=O)C(N)=O (stereo partly drawn) [I-2598, 5hexenyl-MePro-Asp-B5-Ala-Asp-Asp-Ala-Ala-Phe-PyrS2-Leu-3Thi-BztA-Gln-NH2] | 1350
CC(=O)N1CCC[C@]12CC=CCCCC1(CCCC=CCCCOC(=O)N3CC[C@@](C(=O)N[C@@H](Cc4ccccc4)C(=O)N[C@@H](Cc4csc5ccccc45)C(=O)N[C@@H](CCO)C(N)=O)(C3)NC(=O)[C@H](CC(N)=O)NC(=O)[C@H](Cc3cccc(Cl)c3)NC(=O)[C@H](C)NC(=O)[C@H](CCCCNC(C)C)NC(=O)[C@H](CCC(N)=O)NC(=O)[C@H](CC(=O)O)NC1=O)NC(=O)[C@H](CC1CCCCC1)NC(=O)[C@H](CC(N)=O)NC2=O (stereo partly drawn) [I-1924, Ac-PL3-Asn-Cha-B5-Asp-Gln-iPrLys-Ala-3C1F-Asn-PyrS2-Phe-BztA-Hse-NH2] | 1610
CC(=O)N1CCC[C@]12CC=CCCCC1(CCCC=CCCCCC[C@@](C)(C(=O)N[C@@H](Cc3ccsc3)C(=O)N[C@@H](Cc3csc4ccccc34)C(=O)N[C@@H](CCC(N)=O)C(N)=O)NC(=O)[C@H](CC(N)=O)NC(=O)[C@H](Cc3ccccc3)NC(=O)[C@H](C)NC(=O)[C@H](C)NC(=O)[C@H]([C@@H](C)O)NC(=O)[C@H](CC(N)=O)NC1=O)NC(=O)[C@H](CC(C)(C)C)NC(=O)[C@H](CC(=O)O)NC2=O (stereo partly drawn) [I-2200, Ac-PL3-Asp-Npg-B5-Asn-Thr-Ala-Ala-Phe-Asn-S7-3Thi-BztA-Gln-NH2] | 8400
CC(=O)N1CCC[C@]12CCCCCCC1(CCCCCCCCOC(=O)N3CC[C@](C(=O)N[C@@H](Cc4ccsc4)C(=O)N[C@@H](Cc4csc5ccccc45)C(=O)N[C@@H](CCC(N)=O)C(N)=O)(C3)NC(=O)[C@H](CC(N)=O)NC(=O)[C@H](Cc3ccccc3)NC(=O)[C@H](C)NC(=O)[C@H](C)NC(=O)[C@H](CC(=O)O)NC(=O)[C@H](CC(=O)O)NC1=O)NC(=O)[C@H](CC(C)(C)C)NC(=O)[C@H](CC(=O)O)NC2=O (stereo partly drawn) [I-2021, Ac-PL3-Asp-Npg-B5-Asp-Asp-Ala-Ala-Phe-Asn-PyrR2-3Thi-BztA-Gln-NH2] | 5380
CC(=O)N1CCC[C@]12CC=CCCCCC1(CCCCC=CCCOC(=O)N3CC[C@@](C(=O)N[C@@H](Cc4ccccc4C(F)(F)F)C(=O)N[C@@H](Cc4csc5ccccc45)C(=O)N[C@@H](CCC(N)=O)C(N)=O)(C3)NC(=O)[C@H](CC(C)C)NC(=O)[C@H](Cc3ccccc3)NC(=O)[C@H](C)NC(=O)[C@H](C)NC(=O)[C@H](Cc3cccc(C(=O)O)c3)NC(=O)[C@H](CC(=O)O)NC1=O)NC(=O)[C@H](CC(C)(C)C)NC(=O)[C@H](CC(=O)O)NC2=O (stereo partly drawn) [I-2509, Ac-PL3-Asp-Npg-B6-Asp-3COOHF-Ala-Ala-Phe-Leu-PyrS1-2F3MeF-BztA-Gln-NH2] | 17
CC(=O)N1CCC[C@]12CC=CCCCC1(CCCC=CCCCOC(=O)N3CC[C@@](C(=O)N[C@@H](Cc4ccsc4)C(=O)N[C@@H](Cc4csc5ccccc45)C(=O)N[C@@H](CCC(N)=O)C(N)=O)(C3)NC(=O)[C@H](CCCNC(=N)N)NC(=O)[C@H](Cc3ccccc3)NC(=O)[C@H](C)NC(=O)[C@H](C)NC(=O)[C@H]([C@@H](C)O)NC(=O)[C@H](CC(N)=O)NC1=O)NC(=O)[C@H](CC(C)(C)C)NC(=O)[C@H](CC(=O)O)NC2=O (stereo partly drawn) [I-1883, Ac-PL3-Asp-Npg-B5-Asn-Thr-Ala-Ala-Phe-Arg-PyrS2-3Thi-BztA-Gln-NH2] | 884
CC(=O)N1CCC[C@]12CC=CCCCC1(CCCC=CCCCOC(=O)N3CC[C@@](C(=O)N[C@@H](Cc4ccsc4)C(=O)N[C@@H](Cc4csc5ccccc45)C(=O)N[C@@H](CCC(N)=O)C(N)=O)(C3)NC(=O)[C@H](CC(N)=O)NC(=O)[C@H](Cc3ccccc3)NC(=O)[C@H](C)NC(=O)[C@H](C)NC(=O)[C@H](CCc3ccc(O)cc3)NC(=O)[C@H](CC(=O)O)NC1=O)NC(=O)[C@H](CC(C)(C)C)NC(=O)[C@H](CC(=O)O)NC2=O (stereo partly drawn) [I-1785, Ac-PL3-Asp-Npg-B5-Asp-hTyr-Ala-Ala-Phe-Asn-PyrS2-3Thi-BztA-Gln-NH2] | 31
CC(=O)N1CCC[C@]12CC=CCCCC1(CCCC=CCCCOC(=O)N3CC[C@@](C(=O)N[C@@H](Cc4ccsc4)C(=O)N[C@@H](Cc4csc5ccccc45)C(=O)N[C@@H](CCC(N)=O)C(N)=O)(C3)NC(=O)[C@H](CC(C)C)NC(=O)[C@H](Cc3ccccc3)NC(=O)[C@H](C)NC(=O)[C@H](C)NC(=O)[C@H](Cc3ccc(O)cc3)NC(=O)[C@H](CC(=O)O)NC1=O)NC(=O)[C@H](CC(C)(C)C)NC(=O)[C@H](CC(=O)O)NC2=O (stereo partly drawn) [I-1784, Ac-PL3-Asp-Npg-B5-Asp-Tyr-Ala-Ala-Phe-Leu-PyrS2-3Thi-BztA-Gln-NH2] | 528
CC(=O)N1CCC[C@]12CC=CCCCC1(CCCC=CCCCOC(=O)N3CC[C@@](C(=O)N[C@@H](Cc4ccsc4)C(=O)N[C@@H](Cc4csc5ccccc45)C(=O)N[C@@H](CCC(N)=O)C(N)=O)(C3)NC(=O)[C@H](Cc3c[nH]cn3)NC(=O)[C@H](Cc3ccccc3)NC(=O)[C@H](C)NC(=O)[C@H](C)NC(=O)[C@H]([C@@H](C)O)NC(=O)[C@H](CC(N)=O)NC1=O)NC(=O)[C@H](CC(C)(C)C)NC(=O)[C@H](CC(=O)O)NC2=O (stereo partly drawn) [I-2146, Ac-PL3-Asp-Npg-B5-Asn-Thr-Ala-Ala-Phe-His-PyrS2-3Thi-BztA-Gln-NH2] | 248
CC(=O)N1CCC[C@]12CC=CCCCC1(CCCC=CCCCOC(=O)N3CC(C(=O)N[C@@H](Cc4ccsc4)C(=O)N[C@@H](Cc4csc5ccccc45)C(=O)N[C@@H](CCC(N)=O)C(N)=O)(C3)NC(=O)[C@H](CC(C)C)NC(=O)[C@H](Cc3ccccc3)NC(=O)[C@H](C)NC(=O)C(C)(C)NC(=O)[C@H](Cc3cccc(C(=O)O)c3)NC(=O)[C@H](CC(=O)O)NC1=O)NC(=O)[C@H](CC(C)(C)C)NC(=O)[C@H](CC(=O)O)NC2=O (stereo partly drawn) [I-2617, Ac-PL3-Asp-Npg-B5-Asp-3COOHF-Aib-Ala-Phe-Leu-Az2-3Thi-BztA-Gln-NH2] | 130
CC(C)C[C@H](NC(=O)[C@]12CCN(C1)C(=O)OCCCCCCCCC1(CCCCCCCC(=O)N3CCC[C@@]3(C)C(=O)N[C@@H](CC(=O)O)C(=O)N1)C(=O)N[C@@H](C)C(=O)N[C@@H](CC(=O)O)C(=O)N[C@@H](CC(=O)O)C(=O)N[C@@H](C)C(=O)N[C@@H](C)C(=O)N[C@@H](Cc1ccccc1)C(=O)N2)C(=O)N[C@@H](Cc1ccsc1)C(=O)N[C@@H](Cc1csc2ccccc12)C(=O)N[C@@H](CCC(N)=O)C(N)=O (stereo partly drawn) [I-2601, 4pentenyl-MePro-Asp-B5-Ala-Asp-Asp-Ala-Ala-Phe-PyrS2-Leu-3Thi-BztA-Gln-NH2] | 592
CC(=O)N1CCC[C@]12CC=CCCCC1(CCCC=CCCCOC(=O)N3CC[C@@](C(=O)N[C@@H](Cc4ccsc4)C(=O)N[C@@H](Cc4csc5ccccc45)C(=O)N[C@@H](Cc4ccccc4)C(N)=O)(C3)NC(=O)[C@H](CC(N)=O)NC(=O)[C@H](Cc3ccccc3)NC(=O)[C@H](C)NC(=O)C(C)(C)NC(=O)[C@H]([C@@H](C)O)NC(=O)[C@H](CC(N)=O)NC1=O)NC(=O)[C@H](CC(C)(C)C)NC(=O)[C@H](CC(=O)O)NC2=O (stereo partly drawn) [I-2412, Ac-PL3-Asp-Npg-B5-Asn-Thr-Aib-Ala-Phe-Asn-PyrS2-3Thi-BztA-Phe-NH2] | 267
CC(=O)N1CCC[C@]12CCCCCCC1(CCCCCCCCOC(=O)N3CC[C@@](C(=O)N[C@@H](Cc4ccccc4Cl)C(=O)N[C@@H](Cc4csc5ccccc45)C(=O)N[C@@H](CCC(N)=O)C(N)=O)(C3)NC(=O)[C@H](CC(N)=O)NC(=O)[C@H](Cc3ccccc3)NC(=O)[C@H](C)NC(=O)[C@H](C)NC(=O)[C@H](CC(=O)O)NC(=O)[C@H](CC(=O)O)NC1=O)NC(=O)[C@H](CC(C)(C)C)NC(=O)[C@H](CC(=O)O)NC2=O (stereo partly drawn) [I-1464, Ac-PL3-Asp-Npg-B5-Asp-Asp-Ala-Ala-Phe-Asn-PyrS2-2C1F-BztA-Gln-NH2] | 168
